Test results taken from patent publication US4260760A, “Diaryl-aliphatic-amino-aliphatic-piperazines” (priority 1979, dated 1981).
Structures can show the parent of a compound that is named as a salt.

Tested on: mice
Test: Acute Oral LD50 mice (Table I)
Format: in vivo
Description: The low toxicity of these compounds makes them especially attractive for use where contact with skin surfaces or possible ingestion renders the use of irritating or toxic materials inadvisable.
______________________________________

Cc1ccc(C(C)(C)C)cc1CCCC(CCCc1cc(C(C)(C)C)ccc1C)NCCCNCCCN [1-[1,7-di-(2-methyl-5-t-butylphenyl)-hydrochloride]
Acute Oral LD50 mice: 1650 mg/kg
